Measured values published in US11452717B2, “Small molecule activators of nicotinamide phosphoribosyltransferase (NAMPT) and uses thereof” (Sanford Burnham Prebys Medical Discovery Institute, priority 2017, dated 2022).

Each molecule was assayed against NAMPT enzyme (Homo sapiens (Human), UniProt P43490) (assay: Enzyme Assay and NMN Detection (NAMPT reaction, fluorescence detection of NMN)). Conditions: Table B-1; NAMPT activation, NMN formation.
NAMPT enzyme, sequence (P43490 whole entry, species assumed): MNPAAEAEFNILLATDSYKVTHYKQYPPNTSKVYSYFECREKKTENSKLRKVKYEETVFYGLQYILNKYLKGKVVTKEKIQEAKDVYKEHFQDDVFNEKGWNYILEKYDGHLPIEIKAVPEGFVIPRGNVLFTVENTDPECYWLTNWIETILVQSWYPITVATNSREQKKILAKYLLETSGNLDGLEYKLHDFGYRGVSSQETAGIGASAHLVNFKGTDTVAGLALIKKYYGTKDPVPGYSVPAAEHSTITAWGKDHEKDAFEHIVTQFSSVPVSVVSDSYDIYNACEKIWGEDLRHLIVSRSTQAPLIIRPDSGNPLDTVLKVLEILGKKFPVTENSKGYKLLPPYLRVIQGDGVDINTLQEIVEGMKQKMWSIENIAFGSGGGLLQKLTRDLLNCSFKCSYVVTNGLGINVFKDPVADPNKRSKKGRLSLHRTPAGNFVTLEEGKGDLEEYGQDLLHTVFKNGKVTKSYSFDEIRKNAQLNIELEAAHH
Format: biochemical
Summary of the method: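 Reaction in 50 mM HEPES pH 7.5, 5 mM MgCl2, 0.1% Prionex, 0.005% Tween 20, 1 mM TCEP at room temperature, with 16 nM NAMPT, 120 uM ATP, 5 uM nicotinamide, 6.25 uM PRPP, 0.04 U/ml pyrophosphatase for 2 h. Stopped with acetophenone/KOH then formic acid; NMN quantified by fluorescence (ex380/em460) against calibration curve.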
COc1ccc(Cn2cc(CNC(=O)Nc3ccc(NS(=O)(=O)c4ccccc4)cc3)cn2)cc1 [N-(4-{3-[1-(4-Methoxy-benzyl)-1H-pyrazol-4-ylmethyl]-ureido}-phenyl)-benzenesulfonamide] was tested, and the EC50 was > 20 µM.
Molecule O=C(NCc1cnco1)Nc1ccc(S(=O)(=O)NCc2ccccc2)cc1 [N-Benzyl-4-(3-oxazol-5-ylmethyl-ureido)-benzenesulfonamide] has an EC50 of 0.1 to 2 µM.
O=C(NCc1cn[nH]c1)Nc1ccc(S(=O)(=O)NCc2ccccc2)cc1 [N-Benzyl-4-[3-(1H-pyrazol-4-ylmethyl)-ureido]-benzenesulfonamide] showed an EC50 of 0.1 to 2 µM.
With CC(C)N(Cc1ccccc1)S(=O)(=O)c1ccc(NC(=O)NCc2cnco2)cc1 [N-Benzyl-N-isopropyl-4-(3-oxazol-5-ylmethyl-ureido)-benzenesulfonamide] the EC50 was < 0.1 µM.

Same assay, conditions: Table B-2; NAMPT activation, NMN formation
Cc1ccc(CNS(=O)(=O)c2ccc(NC(=O)NCc3ccncc3)cc2)cc1 [N-(4-methylbenzyl)-4-(3-(pyridin-4-ylmethyl)ureido)benzenesulfonamide] was tested, and the EC50 was 0.1 to 2 µM.
In the case of Cc1ccc(CCNC(=O)c2ccc(NC(=O)NCc3ccncc3)cc2)cc1 [N-(4-methylphenethyl)-4-(3-(pyridin-4-ylmethyl)ureido)benzamide], the EC50 is reported as 0.1 to 2 µM.
Cc1cc(NS(=O)(=O)c2ccc(NC(=O)NCc3ccncc3)cc2)no1 [N-(5-Methyl-isoxazol-3-yl)-4-(3-pyridin-4-ylmethyl-ureido)-benzenesulfonamide] was tested, and the EC50 was > 20 µM.
For O=C(NCc1ccncc1)Nc1ccc(C(=O)Nc2ccc3c(c2)OCO3)cc1 [N-(benzo[d][1,3]dioxol-5-yl)-4-(3-(pyridin-4-ylmethyl)ureido)benzamide], the EC50 was 5 to 20 µM.
O=C(NCc1ccncc1)Nc1cccc(S(=O)(=O)NCC2CCC2)c1 [N-(cyclobutylmethyl)-3-(3-(pyridin-4-ylmethyl)ureido)benzenesulfonamide] was tested, and the EC50 was > 20 µM.
Work on O=C(NCc1ccncc1)Nc1ccc(C(=O)NCC2CCCC2)cc1 [N-(cyclopentylmethyl)-4-(3-(pyridin-4-ylmethyl)ureido)benzamide] yielded an EC50 of 5 to 20 µM.
For O=C(NCc1ccncc1)Nc1ccc(C(=O)NCC2CC2)cc1 [N-(cyclopropylmethyl)-4-(3-(pyridin-4-ylmethyl)ureido)benzamide], the EC50 was 2 to 5 µM.
O=C(NCc1ccncc1)Nc1ccc(C(=O)Nc2ccccn2)cc1 [N-(pyridin-2-yl)-4-(3-(pyridin-4-ylmethyl)ureido)benzamide] showed an EC50 of 5 to 20 µM.
For O=C(NCc1ccncc1)Nc1ccc(C(=O)Nc2cccnc2)cc1 [N-(pyridin-3-yl)-4-(3-(pyridin-4-ylmethyl)ureido)benzamide], the EC50 was > 20 µM.
With O=C(NCc1ccncc1)Nc1ccc(C(=O)NCc2ccncc2)cc1 [N-(pyridin-4-ylmethyl)-4-(3-(pyridin-4-ylmethyl)ureido)benzamide] the EC50 was > 20 µM.
In the case of CC(C)(C)NS(=O)(=O)c1ccc(NC(=O)NCc2ccncc2)cc1 [N-(tert-butyl)-4-(3-(pyridin-4-ylmethyl)ureido)benzenesulfonamide], the EC50 is reported as 0.1 to 2 µM.
O=C(NCc1ccncc1)Nc1ccc(S(=O)(=O)N(Cc2ccccc2)CC(F)(F)F)cc1 [N-Benzyl-4-(3-pyridin-4-ylmethyl-ureido)-N-(2,2,2-trifluoro-ethyl)-benzenesulfonamide] was tested, and the EC50 was < 0.1 µM.
Molecule O=C(NCc1ccncc1)Nc1ccc(S(=O)(=O)NCc2ccccc2)cc1 [N-Benzyl-4-(3-pyridin-4-ylmethyl-ureido)-benzenesulfonamide] has an EC50 of 0.1 to 2 µM.
In the case of O=C(NCc1ccncc1)Nc1ccc(S(=O)(=O)N(Cc2ccccc2)C2CC2)cc1 [N-Benzyl-N-cyclopropyl-4-(3-pyridin-4-ylmethyl-ureido)-benzenesulfonamide], the EC50 is reported as < 0.1 µM.
With CCN(Cc1ccccc1)S(=O)(=O)c1ccc(NC(=O)NCc2ccncc2)cc1 [N-Benzyl-N-ethyl-4-(3-pyridin-4-ylmethyl-ureido)-benzenesulfonamide] the EC50 was < 0.1 µM.

Same assay, conditions: Table B-3; NAMPT activation, NMN formation
In the case of O=C(NCc1ccccc1)Nc1ccc(S(=O)(=O)NCc2ccccc2)cc1 [N-Benzyl-4-(3-benzyl-ureido)-benzenesulfonamide], the EC50 is reported as > 20 µM.
